According to patent US20260374773A1, “MULTI-CYCLIC IRAK AND FLT3 INHIBITING COMPOUNDS AND USES THEREOF” (CHILDREN'S HOSPITAL MEDICAL CENTER, priority 2022, published 2026):
One block for each compound: values may come before it.

Experiments:
Details in all cases: no ATP
IRAK1 = IRAK1 (Homo sapiens, UniProt P51617); assay: DiscoverX KINOMEscan active site-directed competition binding, IRAK1
Source text: (§1) Kinase binding data were obtained for various exemplary compounds prepared according to Examples 1-8 using the DiscoverX KINOMEscan® active site-directed competition binding site-directed assay protocol described below. […] As a result, the data report thermodynamic interaction affinities (Kd values), rather than IC50 values that are dependent on ATP concentrations. The assay uses a DNA-tagged version of the protein kinase, and an immobilized ligand bound to a solid support. Compounds that directly or indirectly prevent kinase binding to the immobilized ligand reduce the amount of kinase captured on the solid support, which is detected using an ultra-sensitive qPCR method. Affinity constants reported from the assay have been reported to be independent of the immobilized ligand used that is coupled to the solid support (See supplemental information in Fabian, M. A. et. al., (2005) Nat. Biotechnol. 23, 329-336; Wodicka, L. M. et. al., (2010) Chem. Biol. 17, 1241-1249.)
(§2) Kinase-tagged T7 phage strains were prepared in an E. coli host derived from the BL21 strain. E. coli were grown to log-phase and infected with T7 phage and incubated with shaking at 32 °C until lysis. The lysates were centrifuged and filtered to remove cell debris. The remaining kinases were produced in HEK-293 cells and subsequently tagged with DNA for qPCR detection. Streptavidin-coated magnetic beads were treated with biotinylated small molecule ligands for 30 minutes at room temperature to generate affinity resins for kinase assays. The liganded beads were blocked with excess biotin and washed with blocking buffer (SeaBlock (Pierce), 1% BSA, 0.05% Tween 20, 1 mM DTT) to remove unbound ligand and to reduce non-specific binding. […] Test compounds were prepared as 111x stocks in 100% DMSO. Kds were determined using an 11-point 3-fold compound dilution series with three DMSO control points. All compounds for Kd measurements are distributed by acoustic transfer (non-contact dispensing) in 100% DMSO. The compounds were then diluted directly into the assays such that the final concentration of DMSO was 0.9%. All reactions were performed in polypropylene 384-well plates. Each was a final volume of 0.02 mL. The assay plates were incubated at room temperature with shaking for 1 hour and the affinity beads were washed with wash buffer (1×PBS, 0.05% Tween 20). The beads were then re-suspended in elution buffer (1×PBS, 0.05% Tween 20, 0.5 μM nonbiotinylated affinity ligand) and incubated at room temperature with shaking for 30 minutes. The kinase concentration in the eluates was measured by qPCR. Binding constants (Kds) were calculated with a standard dose-response curve using the Hill equation. The Hill Slope was set to −1. Curves were fitted using a non-linear least square fit with the Levenberg-Marquardt algorithm.
as §1, with “9-12” for “1-8”
(§3) Kinase-tagged T7 phage strains were prepared in an E. coli host derived from the BL21 strain. […]

FLT3 ITD = target: T1, FLT3 ITD (Homo sapiens, UniProt P36888, ITD); assay: DiscoverX KINOMEscan active site-directed competition binding, FLT3 ITD
T1 construct: T7 phage/E. coli or HEK-293 expression
T1 sequence (P36888 27-993): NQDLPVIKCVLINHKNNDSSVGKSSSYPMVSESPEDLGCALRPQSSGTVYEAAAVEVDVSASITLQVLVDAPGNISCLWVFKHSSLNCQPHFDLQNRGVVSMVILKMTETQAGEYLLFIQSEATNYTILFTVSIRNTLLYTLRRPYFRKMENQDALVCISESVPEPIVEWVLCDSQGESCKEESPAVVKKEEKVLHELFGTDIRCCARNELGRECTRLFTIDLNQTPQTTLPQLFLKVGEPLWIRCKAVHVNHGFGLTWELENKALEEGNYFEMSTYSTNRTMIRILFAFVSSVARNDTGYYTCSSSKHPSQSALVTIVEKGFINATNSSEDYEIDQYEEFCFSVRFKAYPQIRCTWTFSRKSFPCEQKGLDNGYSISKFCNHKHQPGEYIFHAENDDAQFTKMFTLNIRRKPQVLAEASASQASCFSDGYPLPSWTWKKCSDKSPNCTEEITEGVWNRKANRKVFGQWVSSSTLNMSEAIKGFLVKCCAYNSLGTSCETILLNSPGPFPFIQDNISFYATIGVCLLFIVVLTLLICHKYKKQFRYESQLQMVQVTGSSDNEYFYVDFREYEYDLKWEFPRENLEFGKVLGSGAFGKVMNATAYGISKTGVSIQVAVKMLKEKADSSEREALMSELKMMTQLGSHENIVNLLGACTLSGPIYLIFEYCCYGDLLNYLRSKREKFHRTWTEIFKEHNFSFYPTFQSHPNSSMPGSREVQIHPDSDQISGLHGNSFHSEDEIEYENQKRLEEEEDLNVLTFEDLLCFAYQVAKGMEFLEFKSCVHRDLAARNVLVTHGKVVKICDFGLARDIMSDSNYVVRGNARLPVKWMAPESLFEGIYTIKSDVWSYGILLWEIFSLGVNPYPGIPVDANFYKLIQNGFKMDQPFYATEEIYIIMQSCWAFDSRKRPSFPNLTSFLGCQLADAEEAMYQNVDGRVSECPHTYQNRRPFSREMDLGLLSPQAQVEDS
Source text: as §1, §2
as §1, with “9-12” for “1-8”
as §3

FLT3 ITD, D835V = target: T2, FLT3 ITD, D835V (Homo sapiens, UniProt P36888, D835V/ITD); assay: DiscoverX KINOMEscan active site-directed competition binding, FLT3 ITD, D835V
T2 sequence (P36888 27-993 D835V): T1 sequence (P36888 27-993)
Source text: as §1, §2
as §1, with “9-12” for “1-8”
as §3

FLT3 ITD, F691L = target: T3, FLT3 ITD, F691L (Homo sapiens, UniProt P36888, F691L/ITD); assay: DiscoverX KINOMEscan active site-directed competition binding, FLT3 ITD, F691L
T3 construct: F691L gatekeeper
T3 sequence (P36888 27-993 F691L): T1 sequence (P36888 27-993)
Source text: as §1, §2
as §1, with “9-12” for “1-8”
as §3

Sequence of IRAK1 (P51617 whole entry): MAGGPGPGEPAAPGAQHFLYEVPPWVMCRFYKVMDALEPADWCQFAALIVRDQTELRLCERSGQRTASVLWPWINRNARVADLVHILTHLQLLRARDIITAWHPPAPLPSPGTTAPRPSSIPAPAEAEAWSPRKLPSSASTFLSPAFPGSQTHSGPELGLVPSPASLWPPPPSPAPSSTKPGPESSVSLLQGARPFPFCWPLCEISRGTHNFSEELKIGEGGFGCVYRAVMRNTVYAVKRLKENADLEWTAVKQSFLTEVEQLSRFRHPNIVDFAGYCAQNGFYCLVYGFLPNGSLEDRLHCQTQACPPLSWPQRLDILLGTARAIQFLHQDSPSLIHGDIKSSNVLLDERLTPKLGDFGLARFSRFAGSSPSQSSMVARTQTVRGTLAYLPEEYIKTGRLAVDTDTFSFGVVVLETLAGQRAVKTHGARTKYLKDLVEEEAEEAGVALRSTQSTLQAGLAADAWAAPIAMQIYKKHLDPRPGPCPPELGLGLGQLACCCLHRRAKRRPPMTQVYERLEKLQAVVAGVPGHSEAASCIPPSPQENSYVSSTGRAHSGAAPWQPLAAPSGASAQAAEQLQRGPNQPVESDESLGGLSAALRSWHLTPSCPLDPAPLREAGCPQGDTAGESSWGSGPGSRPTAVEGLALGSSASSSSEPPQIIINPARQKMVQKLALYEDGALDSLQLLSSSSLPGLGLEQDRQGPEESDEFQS

SMILES: COc1cn2ncc(-c3nc(N[C@H]4CNCC[C@@H]4F)c(C#N)cc3F)c2nc1C1CC1 [Compound 7, 6-(5-cyclopropyl-6-methoxypyrazolo[1,5-a]pyrimidin-3-yl)-5-fluoro-2-(((3S,4S)-4-fluoropiperidin-3-yl)amino)nicotinonitrile]
Kd (IRAK1; Table 12): < 0.17 nM | Kd (FLT3 ITD; Table 12): 0.41 nM | Kd (FLT3 ITD, D835V; Table 13): < 0.17 nM | Kd (FLT3 ITD, F691L; Table 13): < 0.17 nM

SMILES: COc1cn2ncc(-c3cncc(N[C@H]4CNCC[C@@H]4F)n3)c2nc1C1CC1 [Compound 12a, 6-(5-cyclopropyl-6-methoxypyrazolo[1,5-a]pyrimidin-3-yl)-N-((3S,4S)-4-fluoropiperidin-3-yl)pyrazin-2-amine]
Kd (IRAK1; Table 18): 0.78 nM | Kd (FLT3 ITD; Table 18): 0.39 nM | Kd (FLT3 ITD, D835V; Table 19): < 0.17 nM | Kd (FLT3 ITD, F691L; Table 19): < 0.17 nM

SMILES: COc1cn2ncc(-c3nc(N[C@H]4CNCC[C@@H]4F)ncc3F)c2nc1C(C)(C)O [Compound 6a, 2-(3-(5-fluoro-2-(((3S,4S)-4-fluoropiperidin-3-yl)amino)pyrimidin-4-yl)-6-methoxypyrazolo[1,5-a]pyrimidin-5-yl)propan-2-ol]
Kd (IRAK1; Table 18): 0.28 nM | Kd (FLT3 ITD; Table 18): 0.23 nM | Kd (FLT3 ITD, D835V; Table 19): < 0.17 nM | Kd (FLT3 ITD, F691L; Table 19): < 0.17 nM

SMILES: COc1cn2ncc(-c3ccnc(N[C@H]4CNCC[C@@H]4F)n3)c2nc1C1CC1 [Compound 7a, 4-(5-cyclopropyl-6-methoxypyrazolo[1,5-a]pyrimidin-3-yl)-N-((3S,4S)-4-fluoropiperidin-3-yl)pyrimidin-2-amine]
Kd (IRAK1; Table 18): 0.53 nM | Kd (FLT3 ITD; Table 18): 0.53 nM | Kd (FLT3 ITD, D835V; Table 19): < 0.17 nM | Kd (FLT3 ITD, F691L; Table 19): < 0.17 nM

SMILES: COc1cn2ncc(-c3nc(N[C@H]4CNCC[C@@H]4F)c(C#N)cc3F)c2nc1C(C)(C)O [Compound 10, 5-fluoro-2-(((3S,4S)-4-fluoropiperidin-3-yl)amino)-6-(5-(2-hydroxypropan-2-yl)-6-methoxypyrazolo[1,5-a]pyrimidin-3-yl)nicotinonitrile]
Kd (IRAK1; Table 12): 0.81 nM | Kd (FLT3 ITD; Table 12): 0.28 nM | Kd (FLT3 ITD, D835V; Table 13): < 0.17 nM | Kd (FLT3 ITD, F691L; Table 13): < 0.17 nM

Other lines, results leading:

Kd (IRAK1; Table 18): < 0.17 nM | Kd (FLT3 ITD; Table 18): < 0.17 nM | Kd (FLT3 ITD, D835V; Table 19): < 0.17 nM | Kd (FLT3 ITD, F691L; Table 19): < 0.17 nM
SMILES: COc1cn2ncc(-c3nc(N[C@@H]4CCCNC4)ncc3F)c2nc1C1CC1 [Compound 14a, (R)-4-(5-cyclopropyl-6-methoxypyrazolo[1,5-a]pyrimidin-3-yl)-5-fluoro-N-(piperidin-3-yl)pyrimidin-2-amine]

Kd (IRAK1; Table 12): 0.27 nM | Kd (FLT3 ITD; Table 12): 0.21 nM | Kd (FLT3 ITD, D835V; Table 13): < 0.17 nM | Kd (FLT3 ITD, F691L; Table 13): < 0.17 nM
SMILES: COc1cn2ncc(-c3nc(N[C@H]4CNCC[C@@H]4F)c(F)cc3F)c2nc1C(C)(C)O [Compound 13, 2-(3-(3,5-difluoro-6-(((3S,4S)-4-fluoropiperidin-3-yl)amino)pyridin-2-yl)-6-methoxypyrazolo[1,5-a]pyrimidin-5-yl)propan-2-ol]

Kd (IRAK1; Table 18): < 0.17 nM | Kd (FLT3 ITD; Table 18): 0.25 nM | Kd (FLT3 ITD, D835V; Table 19): < 0.17 nM | Kd (FLT3 ITD, F691L; Table 19): < 0.17 nM
SMILES: COc1cn2ncc(-c3nc(N[C@H]4CNCC[C@@H]4F)ncc3F)c2nc1C1CC1 [Compound 15a, 4-(5-cyclopropyl-6-methoxypyrazolo[1,5-a]pyrimidin-3-yl)-5-fluoro-N-((3S,4S)-4-fluoropiperidin-3-yl)pyrimidin-2-amine]
